Assay: Phase I dose escalation study: safety, tolerability, DLT and MTD
Type: in vivo

Cc1cccc2c1NC(=O)[C@@H](NC(=O)[C@H](CCC(F)(F)F)[C@H](CCC(F)(F)F)C(N)=O)N=C2c1cccc(F)c1 [BMS-986115]
3 (8) n (%): Abdominal pain (drug related AE, all grades) (All patients (N = 36)) | Dry mouth (drug related AE, all grades) (All patients (N = 36)) | Dyspepsia (drug related AE, all grades) (All patients (N = 36)) | Flatulence (drug related AE, all grades) (All patients (N = 36)) | Increased upper airway secretion (drug related AE, all grades) (All patients (N = 36)) | Mouth ulceration (drug related AE, all grades) (All patients (N = 36))
7 (19) n (%): Diarrhoea (drug related AE, Grade 3 and 4) (All patients (N = 36))
23 (64) n (%): Hypophosphataemia (drug related AE, all grades) (All patients (N = 36))
26 (72) n (%): Diarrhoea (drug related AE, all grades) (All patients (N = 36))
≤ 24 h: Time for Gr 3/4 diarrhoea to resolve to Gr 1 (1.5 mg QD, with appropriate medical management)
0 n (%): Abdominal distension (drug related AE, all grades) (Arm A QD 0.3 mg (N = 2)) | Abdominal pain (drug related AE, Grade 3 and 4) (Arm A QD 0.3 mg (N = 2)) | Abdominal pain (drug related AE, all grades) (Arm A QD 0.3 mg (N = 2)) | Blood creatinine increased (drug related AE, all grades) (Arm A QD 0.3 mg (N = 2)) | Colitis (drug related AE, Grade 3 and 4) (Arm A QD 0.3 mg (N = 2)) | Cough (drug related AE, Grade 3 and 4) (Arm A QD 0.3 mg (N = 2)) | Cough (drug related AE, all grades) (Arm A QD 0.3 mg (N = 2)) | Decreased Appetite (drug related AE, Grade 3 and 4) (Arm A QD 0.3 mg (N = 2)) | Decreased Appetite (drug related AE, all grades) (Arm A QD 0.3 mg (N = 2)) | Dehydration (drug related AE, Grade 3 and 4) (Arm A QD 0.3 mg (N = 2)) | Dehydration (drug related AE, all grades) (Arm A QD 0.3 mg (N = 2)) | Dermatitis acneiform (drug related AE, all grades) (Arm A QD 0.3 mg (N = 2)) | Diarrhoea (drug related AE, Grade 3 and 4) (Arm A QD 0.3 mg (N = 2)) | Diarrhoea (drug related AE, all grades) (Arm A QD 0.3 mg (N = 2)) | Dry mouth (drug related AE, all grades) (Arm A QD 0.3 mg (N = 2)) | Dry skin (drug related AE, all grades) (Arm A QD 0.3 mg (N = 2)) | Dysgeusia (drug related AE, all grades) (Arm A QD 0.3 mg (N = 2)) | Dyspepsia (drug related AE, all grades) (Arm A QD 0.3 mg (N = 2)) | Dysphonia (drug related AE, all grades) (Arm A QD 0.3 mg (N = 2))
10 (28) n (%): Hypokalaemia (drug related AE, all grades) (All patients (N = 36))
1 (3) n (%): Abdominal pain (drug related AE, Grade 3 and 4) (All patients (N = 36)) | Colitis (drug related AE, Grade 3 and 4) (All patients (N = 36)) | Cough (drug related AE, Grade 3 and 4) (All patients (N = 36)) | Decreased Appetite (drug related AE, Grade 3 and 4) (All patients (N = 36)) | Dehydration (drug related AE, Grade 3 and 4) (All patients (N = 36)) | Fatigue (drug related AE, Grade 3 and 4) (All patients (N = 36)) | Hypocalcaemia (drug related AE, Grade 3 and 4) (All patients (N = 36)) | Ileus (drug related AE, Grade 3 and 4) (All patients (N = 36)) | Leucocytosis (drug related AE, Grade 3 and 4) (All patients (N = 36)) | Pruritus (drug related AE, Grade 3 and 4) (All patients (N = 36)) | Pulmonary embolism (drug related AE, Grade 3 and 4) (All patients (N = 36)) | Urticaria (drug related AE, Grade 3 and 4) (All patients (N = 36)) | Vomiting (drug related AE, Grade 3 and 4) (All patients (N = 36))
4 (11) n (%): Cough (drug related AE, all grades) (All patients (N = 36)) | Dermatitis acneiform (drug related AE, all grades) (All patients (N = 36)) | Hypokalaemia (drug related AE, Grade 3 and 4) (All patients (N = 36)) | Nausea (drug related AE, Grade 3 and 4) (All patients (N = 36))
5 (14) n (%): Dehydration (drug related AE, all grades) (All patients (N = 36)) | Dry skin (drug related AE, all grades) (All patients (N = 36)) | Dysgeusia (drug related AE, all grades) (All patients (N = 36)) | Dysphonia (drug related AE, all grades) (All patients (N = 36)) | Rash maculopapular (drug related AE, all grades) (All patients (N = 36))
29%: Gr 3/4 diarrhoea related to the study treatment (1.5 mg QD, 2 of 7 patients)
6 subjects: Subjects with treatment-related SAEs (Arm A QD)
22 (61) n (%): Nausea (drug related AE, all grades) (All patients (N = 36))
2 (6) n (%): Abdominal distension (drug related AE, all grades) (All patients (N = 36)) | Blood creatinine increased (drug related AE, all grades) (All patients (N = 36)) | Hypocalcaemia (drug related AE, all grades) (All patients (N = 36)) | Hyponatraemia (drug related AE, Grade 3 and 4) (All patients (N = 36)) | Hyponatraemia (drug related AE, all grades) (All patients (N = 36)) | Laryngeal pain (drug related AE, all grades) (All patients (N = 36)) | Sinusitis (drug related AE, all grades) (All patients (N = 36)) | Vision blurred (drug related AE, all grades) (All patients (N = 36)) | Weight decreased (drug related AE, all grades) (All patients (N = 36))
11 (31) n (%): Rash (drug related AE, all grades) (All patients (N = 36))
16 (44) n (%): Fatigue (drug related AE, all grades) (All patients (N = 36)) | Vomiting (drug related AE, all grades) (All patients (N = 36))
13 (36) n (%): Decreased Appetite (drug related AE, all grades) (All patients (N = 36))
9 (25) n (%): Pruritus (drug related AE, all grades) (All patients (N = 36))
14 (39) n (%): Hypophosphataemia (drug related AE, Grade 3 and 4) (All patients (N = 36))

Source: publication PMC7523345 (Investigational new drugs, 2018)
